Source: patent US7732484B2, “Use of selective adenosine A1 receptor allosteric enhancers to manipulate angiogenesis” (University of Virginia Patent Foundation, priority 2000, dated 2010)

Columns and labels:
[1] = test system: chicken chorioallantoic membrane (CAM); assay: Windowed CAM assay, Elvax pellet, vascular density index; format: in vivo; conditions: Elvax pellet with 3 mg adenosine, in place for seven days, 12-15 eggs per group, FIG. 5
Procedure: Fertile White Leghorn chicken eggs were obtained from Truslow Farms (Chesterfield, Mo.). Eggs were incubated at 37° for 7 days, then a 1.5 cm window was cut into each egg over the CAM. Pellets were applied to the CAMs and the windows closed with cellophane tape. Eggs were incubated until day 14 when the CAMs were fixed. […] The pellets were placed on the CAM where there were a few vessels present and were left in place for seven days. The CAMs then were fixed in 10% buffered formalin and vessels were counted under 20× magnification using a Nikon stereomicroscope. The quantitation of vascular number is presented as vascular density index VDI that was an adaptation of a method described by Harris-Hooker (Harris-Hooker et al., Neovascular Responses Induced by Cultured Aortic Endothelial Cells, J. Cell. Phys., 114, 302-310, 1983). A plastic cover slip inscribed with 4, 5, 6, and 8 mm diameter concentric circles was centered over the adenosine pellet on the formalin-fixed CAM. The vascular density was judged by counting the numbers of the vessels which intersected the circles. This technique allowed counting of vessels down to 10-12 u in diameter. The positioning of the pellets on the CAM was randomized. […] Adenosine was delivered by other means as well.

[2] = test system: chicken chorioallantoic membrane (CAM); assay: CAM assay, drug applied daily on filter paper disc, vessels counted; format: in vivo; conditions: for angiogenic response in the CAM (vessel density at edge of disk): 100 μl daily for 7 days on filter paper disk
Procedure: Adenosine receptor subtype selective agonists stimulate angiogenesis to varying degrees in the CAM. […] In these studies, sterile filter paper disks were used to apply drug or vehicle to the CAM of eggs windowed after 7 days of incubation. The circular disk was 7 mm diameter. The agonist and antagonist drugs were delivered daily for 7 days in a volume of 100 μl placed onto the disks. On day 14 the CAMs were formalin fixed. The vessel density was determined by counting the vessels that intersected with the edge of the disks. Each bar represents data from between 13 and 19 eggs, with the exception of the bar for xanthine amine congener (XAC) which represents only four eggs. […] It is possible that some adenosine receptors may stimulate angiogenesis, while others, particularly the A2A receptor, may inhibit it. […] The 100 nM doses used should have allowed some preservation of subtype selectivity for the ligands.
Fertile White Leghorn chicken eggs are obtained from Truslow Labs (Maryland) and incubated until day 7 post-fertilization at 37° C. The eggs were automatically rotated by the incubator. On day 7 the eggs were candled to check for viability. The eggshell surface was cleaned with betadine and 70% isopropanol. A window 1.5×1.5 cm was cut into each egg over the CAM. The window was covered with clear cellophane tape and the eggs incubated at 37° C. overnight. The following day a sterile filter paper disc was applied to the CAM for the daily delivery of drugs or vehicle in a volume of 100 μl. CAMs were fixed on day 14 and vessels counted using the aforementioned method of Harris-Hooker et al.
CPA at 100 nM with or without 1 μM WRC-0571 was applied to filter paper discs on developing CAMs as described above.
Here, PD enhances the effects of endogenous adenosine on the chicken A1 receptor in the CAM. PD at a concentration of 100 μM, or vehicle, was delivered to the CAM on a filter paper disc using a protocol identical to that used for adenosine agonists. […] A small effect such as this in the absence of applied ligand or ischemia/hypoxia (which would increase the endogenous adenosine levels) is expected. Because it is a rapidly growing tissue, the CAM probably has higher levels of adenosine than more quiescent tissues, resulting in a measurable effect.

[3] = test system: chicken chorioallantoic membrane (CAM); assay: as above; format: in vivo; conditions: 20 nM CPA alone, FIG. 10
[4] = molecular target: T1, human A3 over the A1 receptor (Homo sapiens, UniProt P0DMS8); conditions: cited from earlier work
T1 sequence (P0DMS8 1-318): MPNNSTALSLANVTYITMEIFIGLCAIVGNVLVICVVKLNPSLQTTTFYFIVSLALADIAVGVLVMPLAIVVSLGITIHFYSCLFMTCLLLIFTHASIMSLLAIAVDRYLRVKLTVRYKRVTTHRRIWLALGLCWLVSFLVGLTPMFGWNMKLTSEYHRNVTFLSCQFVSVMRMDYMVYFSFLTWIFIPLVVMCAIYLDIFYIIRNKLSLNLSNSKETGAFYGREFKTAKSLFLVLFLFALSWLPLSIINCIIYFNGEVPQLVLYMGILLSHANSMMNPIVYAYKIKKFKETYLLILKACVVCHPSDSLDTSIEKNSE

rat mesentery = assay: Rat mesentery angiogenesis, intraperitoneal Alzet osmotic pump infusion; format: in vivo; conditions: chronic infusion by Alzet pump into the peritoneal cavity, one week, FIG. 11
Procedure: Drug application into rat mesentery using infusion pumps. Alzet osmotic pumps were filled with drug or vehicle to a volume of 200 μl . The abdominal cavities of anesthetized 150 g Sprague-Dawley rats were incised and pumps implanted into the intraperitoneal cavity. The pumps delivered the drug at 1.0 μl/hr. After one week mesenteric samples were taken between vascular arcades along the length of the small bowel. Specimens were fixed and stained using a BS:lectin stain.
The control mesentery is shown on the left, PD 81,723—treated on the right. The chronic infusion was an advantage because the model is not an ischemic one, so steady long term administration of the PD 81,723 may help to augment the effects of lower concentrations of endogenous adenosine.

Nc1ncnc2c1ncn2[C@@H]1O[C@H](CO)[C@@H](O)[C@H]1O [Adenosine, adenosine]
angiogenesis in the CAM model (vascular density index) [1]: stimulated angiogenesis

CCNC(=O)[C@H]1O[C@@H](n2cnc3c(N)nc(NCCc4ccc(CCC(=O)O)cc4)nc32)[C@H](O)[C@@H]1O [CGS21680]
angiogenic response in the CAM (vessel density at edge of disk) ([2]; 100 nM doses, FIG. 6): No angiogenic response

OC[C@H]1O[C@@H](n2cnc3c(NC4CCCC4)ncnc32)[C@H](O)[C@@H]1O [CPA, Cyclopentyladenosine]
stimulation of angiogenesis in the CAM [3]: did not stimulate angiogenesis | angiogenic response in the CAM (vessel density at edge of disk) ([2]; 100 nM doses, FIG. 6): positive angiogenic response

CCOC(=O)C1=C(C)NC(c2ccccc2)=C(C(=O)OCc2ccccc2)C1C#Cc1ccccc1 (centres unmarked) [MRS 1191]
selectivity for the human A3 over the A1 receptor [4]: > 1300 fold

CCNC(=O)[C@H]1O[C@@H](n2cnc3c(N)ncnc32)[C@H](O)[C@@H]1O [NECA]
angiogenic response in the CAM (vessel density at edge of disk) ([2]; 100 nM doses, FIG. 6): positive angiogenic response

Cc1sc(N)c(C(=O)c2cccc(C(F)(F)F)c2)c1C [PD 81,723]
stimulation of angiogenesis in the CAM ([2]; 100 μM on filter paper disc versus vehicle, FIG. 8): 10% | stimulation of angiogenesis in rat mesentery (rat mesentery): Stimulation of angiogenesis

CC(C)N(C)c1nc2c(N[C@@H]3CC4CC3CC4O)ncnc2n1C (some centres unmarked) [WRC-0571]
block of the angiogenic effect of CPA in the CAM ([2]; 1 μM WRC-0571 with 100 nM CPA, FIG. 7): completely blocked | block of the effects of endogenous adenosine on angiogenesis in the CAM ([2]; FIG. 8): blocked the effects of endogenous adenosine | block of C17-stimulated angiogenesis in the CAM ([2]; FIG. 9): blocked | block of the effects of PD 81,723 in the CAM ([2]; with PD at 100 μM, FIG. 8): completely blocked

CCCn1c(=O)c2[nH]c(-c3ccc(OCC(=O)NCCN)cc3)nc2n(CCC)c1=O [XAC, xanthine amine congener]
inhibition of baseline angiogenesis in the CAM ([2]; 100 nM doses, daily for 7 days on filter paper disk, four eggs, FIG. 6): did not inhibit baseline angiogenesis

CNC(=O)[C@H]1O[C@@H](n2cnc3c(NCc4cccc(I)c4)ncnc32)[C@H](O)[C@@H]1O [m-MECA, N^6-iodobenzyl-5′-N-methyl-carboxamidoadenosine]
angiogenic response in the CAM (vessel density at edge of disk) ([2]; 100 nM doses, FIG. 6): positive angiogenic response
